Source: the supplement of paper PMC10733146

Experiments:
Test in all cases: viability relative to DMSO control (fraction); higher = less drug effect (more viable cells)
Conditions in all cases: 48 h
[1] = tested on: primary AML patient cells (S012)
Method in brief: (§1)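 Viability is given as CellTiter-Glo luminescence relative to the median of 16 inner DMSO wells. Fresh or cryopreserved primary mononuclear tumour cells from blood, bone marrow (both Ficoll-isolated) or processed lymph node were plated at 4 × 10^4 cells per well in 384-well plates against five pre-plated compound concentrations, one well each. Incubation lasted 48 h at 37 °C and 5% CO2 in RPMI-1640 with penicillin/streptomycin, L-glutamine and human serum.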

[2] = tested on: primary T-PLL patient cells (S008)
Method in brief: as §1

[3] = tested on: primary AML patient cells (S079)
Method in brief: as §1

[4] = tested on: primary AML patient cells (S056)
Method in brief: as §1

[5] = tested on: primary FL patient cells (S022)
Method in brief: as §1

[6] = tested on: primary AML patient cells (S009)
Method in brief: as §1

[7] = tested on: primary AML patient cells (S089)
Method in brief: as §1

[8] = tested on: primary AML patient cells (S091)
Method in brief: as §1

[9] = tested on: primary MCL patient cells (S053)
Method in brief: as §1

[10] = tested on: primary CLL patient cells (S031)
Method in brief: as §1

[11] = tested on: primary ALL patient cells (S048)
Method in brief: as §1

[12] = tested on: primary AML patient cells (S006)
Method in brief: as §1

[13] = tested on: primary MCL patient cells (S068)
Method in brief: as §1

[14] = tested on: primary MCL patient cells (S041)
Method in brief: as §1

[15] = tested on: primary FL patient cells (S087)
Method in brief: as §1

[16] = tested on: primary AML patient cells (S072)
Method in brief: as §1

[17] = tested on: primary DLBCL patient cells (S082)
Method in brief: as §1

[18] = tested on: primary AML patient cells (S037)
Method in brief: as §1

[19] = tested on: primary MCL patient cells (S063)
Method in brief: as §1

## Cc1nc(Nc2ncc(C(=O)Nc3c(C)cccc3Cl)s2)cc(N2CCN(CCO)CC2)n1 [Dasatinib]
[1]; 0.0016 µM
  viability: 0.993
[1]; 0.008 µM
  viability: 0.917
[1]; 0.04 µM
  viability: 1.01
[1]; 0.2 µM
  viability: 1
[1]; 1 µM
  viability: 1.01
[2]; 0.0016 µM
  viability: 1
[2]; 0.008 µM
  viability: 0.974
[2]; 0.04 µM
  viability: 0.968
[2]; 0.2 µM
  viability: 0.973
[2]; 1 µM
  viability: 0.996
[3]; 0.0016 µM
  viability: 0.973
[3]; 0.008 µM
  viability: 0.911
[3]; 0.04 µM
  viability: 0.863
[3]; 0.2 µM
  viability: 0.812
[3]; 1 µM
  viability: 1.04
[4]; 0.0016 µM
  viability: 0.859
[4]; 0.008 µM
  viability: 1.03
[4]; 0.04 µM
  viability: 0.748
[4]; 0.2 µM
  viability: 0.63
[4]; 1 µM
  viability: 0.572
[5]; 0.0016 µM
  viability: 0.931
[5]; 0.008 µM
  viability: 0.857
[5]; 0.04 µM
  viability: 0.841
[5]; 0.2 µM
  viability: 0.773
[5]; 1 µM
  viability: 0.698
[6]; 0.0016 µM
  viability: 0.987
[6]; 0.008 µM
  viability: 0.965
[6]; 0.04 µM
  viability: 0.993
[6]; 0.2 µM
  viability: 0.972
[6]; 1 µM
  viability: 1
[7]; 0.0016 µM
  viability: 0.976
[7]; 0.008 µM
  viability: 1.03
[7]; 0.04 µM
  viability: 0.576
[7]; 0.2 µM
  viability: 0.504
[7]; 1 µM
  viability: 0.537
[8]; 0.0016 µM
  viability: 0.951
[8]; 0.008 µM
  viability: 0.924
[8]; 0.04 µM
  viability: 0.787
[8]; 0.2 µM
  viability: 0.784
[8]; 1 µM
  viability: 1.29
[9]; 0.0016 µM
  viability: 1.14
[9]; 0.008 µM
  viability: 0.882
[9]; 0.04 µM
  viability: 0.494
[9]; 0.2 µM
  viability: 0.342
[9]; 1 µM
  viability: 0.347
[10]; 0.0016 µM
  viability: 0.944
[10]; 0.008 µM
  viability: 0.609
[10]; 0.04 µM
  viability: 0.393
[10]; 0.2 µM
  viability: 0.325
[10]; 1 µM
  viability: 0.313
[11]; 0.0016 µM
  viability: 1.05
[11]; 0.008 µM
  viability: 0.937
[11]; 0.04 µM
  viability: 0.911
[11]; 0.2 µM
  viability: 0.864
[11]; 1 µM
  viability: 0.926
[12]; 0.0016 µM
  viability: 0.961
[12]; 0.008 µM
  viability: 0.912
[12]; 0.04 µM
  viability: 0.88
[12]; 0.2 µM
  viability: 0.808
[13]; 0.0016 µM
  viability: 0.912
[13]; 0.008 µM
  viability: 0.671
[13]; 0.04 µM
  viability: 0.4
[13]; 0.2 µM
  viability: 0.341
[13]; 1 µM
  viability: 0.357
[14]; 0.0016 µM
  viability: 0.903
[14]; 0.008 µM
  viability: 0.79
[14]; 0.04 µM
  viability: 0.723
[14]; 0.2 µM
  viability: 0.67
[14]; 1 µM
  viability: 0.6
[15]; 0.0016 µM
  viability: 0.914
[15]; 0.008 µM
  viability: 0.782
[15]; 0.04 µM
  viability: 0.747
[15]; 0.2 µM
  viability: 0.753
[15]; 1 µM
  viability: 0.742
[16]; 0.0016 µM
  viability: 0.945
[16]; 0.008 µM
  viability: 0.851
[16]; 0.04 µM
  viability: 0.712
[16]; 0.2 µM
  viability: 0.623
[16]; 1 µM
  viability: 0.704
[17]; 0.0016 µM
  viability: 0.966
[17]; 0.008 µM
  viability: 0.847
[17]; 0.04 µM
  viability: 0.643
[17]; 0.2 µM
  viability: 0.298
[17]; 1 µM
  viability: 0.0983
[18]; 0.0016 µM
  viability: 1.04
[18]; 0.008 µM
  viability: 1.01
[18]; 0.04 µM
  viability: 1
[18]; 0.2 µM
  viability: 0.982
[18]; 1 µM
  viability: 1.03
[19]; 0.0016 µM
  viability: 1
[19]; 0.008 µM
  viability: 0.653
[19]; 0.04 µM
  viability: 0.245
[19]; 0.2 µM
  viability: 0.151
[19]; 1 µM
  viability: 0.118
